# Laboratory results from PMC7322544, “Combining an in silico proarrhythmic risk assay with a tPKPD model to predict QTc interval prolongation in the anesthetized guinea pig assay” (Toxicology and Applied Pharmacology, 2020).
# System: QTc interval
# Assay: Anesthetized cardiovascular guinea pig (CVGP) assay
# Format: in vivo
# Procedure: Briefly, male Hartley guinea pigs (BW: 350–500 g) were anesthetized with a bolus mixture of ketamine/xylazine (85/5 mg kg^− 1, IM) then an intravenous (iv) infusion of ketamine/xylazine (40/0.5 mg kg^− 1 h^− 1, to effect). The jugular vein and left carotid arteries were cannulated for test article administration and arterial blood pressure (BP) monitoring and blood collection, respectively. The body surface electrocardiogram (ECG) was measured via subcutaneous needle electrodes to record modified lead-II ECG. After surgery, anesthetized GPs were stabilized for a minimum of 10 min before beginning baseline data collection. Solutions of 3 varying test-article concentrations suitable for administering selected doses were prepared in appropriate vehicles. Vehicle alone or test-article solutions were administered i.v. with each dose level infused over a 20-min period. Each test article and vehicle were evaluated in ≥ n = 3 male anesthetized GPs. Blood sampling for pharmacokinetic analysis was taken at 10 and 19 min of each dose level.
smiles,measurement,setting,value
"COc1c(N2C[C@@H]3CCCN[C@@H]3C2)c(F)cc2c(=O)c(C(=O)O)cn(C3CC3)c12 [NCE 7, moxifloxacin]",CVGP QTc EC5,"anesthetized guinea pig, free plasma concentration causing 5% increase in QTc interval, > = highest free plasma concentration tested without QTc prolongation",12 µM
same,CVGP QTc EC5,free plasma concentration,15 µM
same,Guinea pig QTc EC5,"free plasma concentration giving 5% QTc increase, > = above highest free plasma concentration tested, no QTc prolongation, i.v. infusion",15 µM
